# “And” between values parts separate entries of the source, which are not always exact repeats. Equal values may be shown once.
# Tests used:
# [1] = test system: serum uric acid (sUA) levels; test: Study A3006GT: phase 2 crossover, sUA in healthy subjects with screening sUA of at least 7.1 mg/dL; tranilast, febuxostat, combination; assay type: in vivo, human
# Method: Study A3006GT was a phase 2, randomized, double-blind, 3-period, 3-treatment crossover trial. The primary objective was to compare the effects of three treatments on serum uric acid (sUA) levels in healthy subjects with a screening sUA level of at least 7.1 mg/dL. The three treatments were: 300 mg QD tranilast and 40 mg QD febuxostat (C); 300 mg QD tranilast alone (T); 40 mg QD febuxostat alone (F).
# The study was conducted in 23 subjects. […] With two exceptions, every subject provided data for all three treatments. Subject 1001 completed only the first two periods of the study (C and F). […] Therefore, the period 3 data for subject 1024 are excluded from the analyses presented here.
# Two endpoints were considered: change from baseline to day 7 in sUA; and percent change from baseline to day 7 in sUA. For each endpoint, an analysis of variance (ANOVA) model for a three-period crossover trial was used. The model included effects for sequence, subject within sequence, treatment, and period. The sequence effect was tested using the subject within sequence mean square as the error term. Two pairwise comparisons between treatments were tested: C−F and C−T. In addition, the two-sided 95% confidence interval for each of these differences was computed.
# For each subject for which results were available from all three treatments, the difference between the change for C and the sum of the changes for F and T was computed. Although the true magnitude of the difference between these two values is not known, a conservative null hypothesis is that this difference should be equally likely to be greater than or less than zero. The sign test and the Wilcoxon signed rank test were used to test this null hypothesis.
# Using the change for each subject as the dependent variable, an analysis of variance (ANOVA) model for a three-period crossover trial was fit. This model included effects for sequence, subject within sequence, treatment, and period. Using the least squares estimates of the mean changes for each treatment, along with the 3×3 covariance matrix of these three estimates, the mean and SD of the difference between C and F+T was estimated, as follows.
# [2] = test system: monosodium urate (MSU) crystal-induced air pouch inflammation; test: Air Pouch Model 1: MSU crystal air pouch, rodent model of gout; assay type: in vivo, male Sprague-Dawley rats; conditions: for Average Exudate Volume / Average Plasma Extravasation, OD620 nm / Total WBC in Sample / WBC: +MSU, 4 h
# Method: The objective of this study was to evaluate the anti-inflammatory affects of tranilast versus a clinically active treatment for gout, colchicine, as well as a clinically active non-steroidal antiinflammatory drug, indomethacin. This evaluation was carried out in male Sprague-Dawley rats in a rodent model of gout. The animals were injected subcutaneously with 20 ml of sterile air, followed three days later by a supplemental injection with 20 ml of sterile air. Six days after the initial sterile air injection, the rats were injected intravenously with Evan's Blue and pretreated for thirty minutes with either a subcutaneous injection of colchicine (1 mg/kg) or indomethacin (5 mg/kg) or oral administration with either 200 mg/kg or 400 mg/kg of tranilast. After the pretreatment period, the rats were injected with 150 mg of monosodium urate (MSU) crystals (10 mg·ml) into the air pouch. Four hours later, the air pouch was injected with 5 ml heparinized saline and the entire contents of the air pouch removed, recording the total volume. The air pouch contents were evaluated for plasma extravasation and total white blood cell (WBC) count.
# (§1) On day 0 the rats were anesthetized in a biological cabinet, the nape of the neck was cleansed with 70% isopropanol followed by iodine tincture (VEDCO, lot L021976). Twenty ml sterile (0.22 μm, Fisher Scientific, Cat. 09-720-3, lot R5SN25683) air was injected subcutaneously using a 23 G×2 inch needle fixed to a 20 ml syringe. The rats were returned to routine housing. No adverse reactions were observed.
# as §1, with “day 3” for “day 0”
# On day 6 the rats were weighed (Mettler, Model PE3000, SN: F69474) and sorted into six treatment groups of ten animals each, based upon average weight. The animals were either dosed subcutaneously with 1 ml/kg colchicine or indomethacin, or orally with either 4 ml/kg or 8 ml/kg tranilast, or 8 ml/kg vehicle. Immediately after test material administration, the rats were intravenously injected with 2 ml/kg Evans Blue.
# Thirty minutes after test material administration, the rats were anesthetized and five groups were injected into the air pouch with 15 ml MSU using an 18 G×1 inch needle fitted to a 20 ml syringe. The sixth group was injected with 15 ml saline. The rats were returned to their cages, no adverse affects were observed.
# Four hours after MSU injection, the rats were anesthetized and 5 ml 10 U/ml heparinized saline was injected into the air pouch. The air pouch was gently massaged, the contents immediately removed using a 14 G×1 inch needle fitted to a 6 ml syringe, and the exudate volume recorded. An aliquot of the exudate was transferred to heparin-treated microtainer tubes (Becton Dickinson, Cat. 365958, lot 8093666, exp. June 09) for white blood cell (WBC) counting. The remainder of the exudate was centrifuged (Hermle Labrotechnik, Model Z200A, SN: 44060036), the supernatants removed and evaluated at OD620nm (Spectronic Unicam, Model 4000 1/4, SN: 3SGD003006) for plasma extravasation.
# [3] = end of 1-week treatment (day 7), C: 300 mg QD tranilast + 40 mg QD febuxostat, T: 300 mg QD, F: 40 mg QD
# [4] = individual subjects, per study period, end of the 1-week treatment period
# [5] = 1 mg/kg colchicine subcutaneous, 30 min before MSU
# [6] = Group 2: colchicine 1 mg/kg subcutaneous
# [7] = 5 mg/kg indomethacin subcutaneous, 30 min before MSU
# [8] = Group 3: indomethacin 5 mg/kg subcutaneous
compound,measurement,setting,value
Cc1nc(-c2ccc(OCC(C)C)c(C#N)c2)sc1C(=O)O [F],"sUA Change from Baseline, Max",[1]; [3],-0.70 mg/dL
same,"sUA Change from Baseline, Mean",[1]; [3],-2.75 mg/dL
same,"sUA Change from Baseline, Median",[1]; [3],-2.85 mg/dL
same,"sUA Change from Baseline, Min",[1]; [3],-3.80 mg/dL
same,"sUA Percent Change from Baseline, Max",[1]; [3],−9.21%
same,"sUA Percent Change from Baseline, Mean",[1]; [3],−35.32%
same,"sUA Percent Change from Baseline, Median",[1]; [3],−36.86%
same,"sUA Percent Change from Baseline, Min",[1]; [3],−48.68%
same,sUA Change from baseline,[1]; [4],−0.7 mg/dL and −2.9 mg/dL (2×) and −2.1 mg/dL (2×) and −1.2 mg/dL and −1.8 mg/dL and −2.8 mg/dL and −3.5 mg/dL (2×) and −2.4 mg/dL and −3.7 mg/dL (2×) and −2.7 mg/dL and −3.6 mg/dL (2×) and −3.3 mg/dL and −3.8 mg/dL and −2.2 mg/dL and −3.1 mg/dL and −2.3 mg/dL and −2.6 mg/dL
same,sUA Percent Change from baseline,[1]; [4],−9.21% and −35.80% and −28.00% and −16.90% and −22.78% and −41.43% and −43.08% and −40.23% and −35.82% and −36.63% and −41.54% and −46.75% and −28.38% and −37.08% and −43.18% and −31.43% and −40.70% and −39.13% and −48.68% and −42.47% and −35.38% and −32.50%
"COc1cc2c(c(OC)c1OC)-c1ccc(OC)c(=O)cc1[C@@H](NC(C)=O)CC2 [Colchicine, N-[1,2,3,10-Tetramethoxy-9-oxo-5,6,7,9-tetrahydrobenzo[a]heptalen-7(S)-yl]acetamide]",inhibition of plasma extravasation,[2]; [5],52%
same,reduction in inflammatory cell infiltration,[2]; [5],88%
same,Average Exudate Volume,[2]; [6],3.9 mL
same,"Average Plasma Extravasation, OD620 nm",[2]; [6],0.776
same,Total WBC in Sample,[2]; [6],35131400
same,WBC,[2]; [6],9215000 cells/ml
COc1ccc2c(c1)c(CC(=O)O)c(C)n2C(=O)c1ccc(Cl)cc1 [Indomethacin],reduction in inflammatory cell infiltration into the air pouch,[2]; [7],94%
same,reduction of plasma extravasation,[2]; [7],69%
same,Average Exudate Volume,[2]; [8],4.9 mL
same,"Average Plasma Extravasation, OD620 nm",[2]; [8],0.505
same,Total WBC in Sample,[2]; [8],18520000
same,WBC,[2]; [8],4160000 cells/ml
